Columns and labels:
[1] = system: extracellular AβOs; assay: ML60 cell assay: ELISA for extracellular AβOs; type: cell-based, Chinese hamster; conditions: ML60 cells, 10 μM, 24 hrs
Protocol: Next, another cell line, ML60, was employed to evaluate the inhibition of AβOs production.
ML60 cell assay. Sandwich enzyme-linked immunoassays (ELISAs) for extracellular AβOs in ML60 cells were performed. ML60 cells (90% confluent) in 96-well plates were treated with test compounds (10 μM) at 37° C., 5% CO2 for 24 hrs. ML60 cells were centrifuged for 5 min at 6000 g, and supernatant media was collected for AβOs measurement by ELISA. The capture antibody 21F12 (to Aβ residues 33-42) was used for capturing both monomeric and oligomeric Aβ42 species. The detecting antibody was biotinylated 21F12B, and the combination of 21F12 and biotinylated 21F12B allows the detection of only AβOs. The 21F12 mAbs were coated at 10 mg/mL into 96-well immunoassay plates (Costar) at room temperature overnight. The plates were then aspirated and blocked with 0.25% human serum albumin in PBS buffer for 1 hr at room temperature. The plates were rehydrated with wash buffer (0.05% Tween 20 in TBS) before use. The samples were added to the plates and incubated at room temperature for 1 hr. The plates were washed 3× with wash buffer between each step of the assay. […] Reaction product was quantified using plate reader by measuring the difference in absorbance at 450 nm and 650 nm.

[2] = system: MC65 cells; assay: Cytotoxicity assay in MC65 cells (MTS, +TC/−TC); type: cell-based, human; conditions: 72 hrs
Description: Protective effects of 14 on AβOs-induced cytotoxicity in MC65 cells and differentiated human neuroblastoma SH-SY5Y cells. […] To further verify whether 14 can protect cells from extracellular AβOs-induced cytotoxicity, all trans-retinoic acid differentiated human SH-SY5Y cells were employed. […] This may further indicate that while both 1 and 14 can bind to AβOs, CM/LR anchorage of 14 can increase its accessibility to intracellular target AβOs. Since CM/LR are crucial for many aspects of cell signaling and functions, 14 was further evaluated for its potential cytotoxicity in mouse spleen and natural killer (NK) cells.
Cytotoxicity assay in MC65 cells. MC65 cells were seeded in 96-well plates (4×10^4 cells/well) at 37° C., 5% CO2 for 24 hrs. The medium was removed and washed with PBS twice. Opti-MEM and test compounds were added under +TC and −TC conditions. The plates were incubated at 37° C., 5% CO2 for 72 hrs, then 20 uL CellTiter 96 AQueous One Solution (Promega, Madison, Wis.) were added to each well and the plates were incubated at 37° C., 5% CO2 for 2-4 hrs. The plates were read at 490 nm using FlexStation III plate reader (Molecular Devices). The blank with only test compounds in Opti-MEM was set up as background control for all of the tested concentrations. Each data point was averaged from six replicates and the experiments were independently repeated at least three times.

[3] = system: AβOs; assay: Western blot assay of AβOs formation in MC65 cells (6E10 antibody); type: cell-based, human; conditions: 10 μM, 24 hrs after removal of TC
Description: Inhibition of AβOs production by designed BMAOIs. […] The whole cell assay is a composite of not only Aβ oligomerization inhibition but also permeability, stability and other factors will validate the accessibility and function of our BMAOIs. MC65 is a human neuroblastoma cell line that conditionally expresses C99, the C-terminus fragment of APP using tetracycline (TC) as transgene suppressor.^38 Upon removal of TC, these cells can produce intracellular Aβ aggregates including small AβOs. […] All BMAOIs were first evaluated at a single concentration of 10 μM. Candidate compounds with inhibitory activities at this concentration were further evaluated in a dose-dependent manner in the following assays. […]
Western blot assay. […] Pellet was lysed by sonication in 1× lysis buffer (62.5 mM Tris base, pH6.8, 2% SDS, 50 mM DTT, 10% glycerol, 0.1% bromphenol blue, and […] each chymostatin, leupeptin, aprotinin, pepstatin, and soybean trypsin inhibitor) and protein level was determined using Coomassie Protein Assay Reagent (Pierce, Rockford, Ill.). […]

[4] = system: intracellular oxidative stress; assay: DCFH-DA antioxidation assay in MC65 cells; type: cell-based, human; conditions: −TC, 24 hrs
Protocol: DCFH-DA antioxidation assay. MC65 cells were seeded in 96-well plates (4×10^4 cells/well). After incubation at 37° C., 5% CO2 for 24 hrs, the medium was removed and washed with PBS. Opti-MEM and test compounds were added (+TC, −TC, and blank with only test compounds). MC65 cells were incubated at 37° C., 5% CO2 for 24 hrs. Then DCFH-DA in Opti-MEM was added to each well (final DCFH-DA concentration was 25 uM) and incubate at 37° C., 5% CO2 for 30 min. The medium was removed and replaced with fresh opti-MEM and plates were read for fluorescence intensity at 485 nm (excitation)/530 nm (emission) using FlexStation III plate reader (Molecular Devices).

[5] = BBB permeability in B6C3F1 mice, brain tissue analysed by HPLC; type: in vivo
Protocol: FIG. 10. Compound 14 can cross the blood brain barrier (BBB) of B6C3F1 mice. Compound 14 (10 mg/kg) was given to B6C3F1 female mice (n=3) by i.v. administration through tail-vein. Then the animals were sacrificed at indicated time intervals and the brain tissues were collected and analyzed by HPLC using C18 column.
An appropriate fluorescent probe must cross the BBB and selectively bind to Aβ plaques. […] Here, we further assessed the BBB permeability of 14 using female B6C3F1 mice combined with HPLC analysis. […] The results may indicate that 14 can rapidly cross the BBB and reach the brain tissue and is metabolized in a reasonable time window (˜3 hrs) that allows clinical operation. 14 appears to violate all of the empirical rules of BBB permeability with a molecule weight >1000 Da and being more lipophilic (log P>3). However, we also realize that there are exceptions and that compounds with molecular weight more than 1000 Da can efficiently cross the BBB and reach brain tissue.

[6] = system: AβOs; assay: Immunocytochemistry assay of AβOs in MC65 cells (A11 antibody); type: cell-based, human; conditions: 10 μM, 24 hrs after removal of TC
Protocol: MC65 cells were treated with the indicated compounds (10 μM) immediately after the removal of TC. After 24 hrs, the cells were fixed and immunofluorescently stained for AβOs, CM/LR, and nucleus and imaged with a Leica TCS-SP2 AOBS confocal laser scanning microscope. Five areas were examined.
Immunocytochemistry assay. MC65 cells were plated onto Lab-Tee chamber slides (1×10^4 cells/well). After 24 hrs incubation at 37° C. and 5% CO2, Opti-MEM was added (with or without TC) and followed by test compounds. MC65 cells were incubated for 24 hrs. MC65 cells were rinsed 3× with PBS and incubated with Alexa 488-conjugated CTX-B (10 ug/mL) for 15 min on ice. After rinsing once with ice-cold PBS, cells were fixed for 30 min with 4% paraformaldehyde. MC65 cells were permeabilized for 30 min with 0.1% Triton X 100. Then MC65 cells were stained with A11 rabbit antibody followed by anti-rabbit Alexa 568 (1:500). Finally MC65 cells were treated with DAPI (5 ug/mL) and mounted with Vectashield Mounting Media. Cell fluorescence was analyzed by a Leica TCS-SP2 AOBS confocal laser scanning microscope equipped with blue diode, Argon, and 3 HeNe (lasers as well as a spectrophotometer based detection system with variable detector windows) using excitation lines at 355 nm, 488 nm, and 568 nm for DAPI, Alexa 488-conjugated CTX-B, and Alexa Fluor 568 donkey anti-rabbit IgG. […]

[7] = system: NK cells; assay: IL-2 augmented natural killer (NK) cell activity; type: cell-based, B6C3F1 mice; conditions: 10 μM
Protocol: IL-2 augmented natural killer (NK) cell activity. […] Recombinant IL-2 (Chiron, Emeryville, Calif.) at a volume of 50 μL was added to each well so that the final concentration of IL-2 was 5000 fU/mL. The plates were cultured overnight in the presence of 1 or 14 (10 μM), and then assayed for NK cell activity using ^51Cr-labeled YAC-1 cells as the target cells. The ^51Cr-YAC-1 cells were added to each well of a 96-well plate to obtain E:T ratio of 50:1. […] Following 4 hrs incubation, the plates were centrifuged, and 0.1 mL of the supernatant was removed from each well and the radioactivity counted. The mean percentage of cytotoxicity was determined.

[8] = system: splenocytes; assay: Anti-CD3 antibody mediated splenocyte proliferation; type: cell-based, B6C3F1 mice; conditions: 10 μM
Protocol: Anti-CD3 antibody mediated splenocyte proliferation. […] The splenocytes (2×10^5/well) were cultured in the microtiter wells coated with anti-CD3 Ab (1 μg/mL; BD PharMingen) in the presence of 1 or 14 (10 μM) at 37° C. in 5% CO2. Prior to harvest on day 3, the cells were pulsed with ^3H-thymidine for 18-24 hours. The incorporation of ^3H-thymidine into the proliferating cells was used as the endpoint of the assay, and the data were expressed as CPM/2×10^5 cells.

## COc1cc(C=CC(=O)C(Cc2cn(CCCCCCNC(=O)CCNC(=O)CCNC(=O)COC3CCC4(C)C(=CCC5C4CCC4(C)C(C(C)CCCC(C)C)CCC54)C3)nn2)C(=O)C=Cc2ccc(O)c(OC)c2)ccc1O (stereo not drawn) [BMAOI 14]
[1]
  production of extracellular AβOs (ELISA): inhibited the production of extracellular AβOs
[2]; +TC, tested concentrations, MTS
  toxic effects on MC65 cell viability in the presence of TC: no toxic effects
[2]; −TC, 16 μM
  rescue of MC65 cell viability upon removal of TC: nearly full rescue
[2]; −TC, MTS
  protective effects on MC65 cell viability upon removal of TC: protected MC65 cell survival in a dose-dependent manner
[3]
  inhibition of the formation of AβOs (Western blot): significantly inhibited
[4]
  suppression of intracellular oxidative stress (DCFH-DA fluorescence): suppressed the intracellular oxidative stress in a dose-depndent manner
[5]; 10 mg/kg i.v.
  time window until disappearance from brain tissue: ~3 h
[5]; 10 mg/kg i.v. tail-vein, female B6C3F1 mice
  earliest time detected in brain tissue: 10 min
[5]; 10 mg/kg i.v., evident at 60 and 120 minutes
  duration of presence in brain tissue: more than two hours
[6]
  formation of AβOs (A11 immunocytochemistry): significantly inhibited
[7]
  cytotoxic effects in NK cells: no cytotoxic effects
[8]
  cytotoxic effects in mouse spleen cells: minimal cytotoxic effects
